Experimental data reported in publication PMC6386767, “Characterization of recombinant fructose-1,6-bisphosphatase gene mutations: evidence of inhibition/activation of FBPase protein by gene mutation” (Bioscience Reports, 2019).
Substitutions are numbered along the chain they refer to.

How the values were obtained:
Assay type in all cases: binding
pig kidney FBPase Y164A = target: T1, pig kidney FBPase Y164A (Sus scrofa, UniProt P00636, Y165A); assay: Differential scanning fluorimetry, Y164A mutant; conditions: enzyme Y164A
T1 construct: His6 (C); made in house; host or cells: Escherichia coli BL21 (DE3)
T1 sequence (P00636 1-338 Y165A): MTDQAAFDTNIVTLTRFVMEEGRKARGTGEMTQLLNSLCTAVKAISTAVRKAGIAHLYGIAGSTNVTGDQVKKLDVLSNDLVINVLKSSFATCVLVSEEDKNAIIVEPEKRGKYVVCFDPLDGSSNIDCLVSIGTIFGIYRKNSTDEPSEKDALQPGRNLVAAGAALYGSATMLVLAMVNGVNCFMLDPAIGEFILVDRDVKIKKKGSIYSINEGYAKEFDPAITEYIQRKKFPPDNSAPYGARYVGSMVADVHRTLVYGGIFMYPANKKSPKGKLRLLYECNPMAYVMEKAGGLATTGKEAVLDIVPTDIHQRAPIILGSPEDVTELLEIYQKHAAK
Description: (§1) Differential scanning fluorimetry (DSF) assays were designed and implemented to run on WT and each mutant for the purpose of determining relative stabilities by melting point, and to detect structural changes in the enzymes upon ligand binding. Thermal shift assays were performed with a Light Cycler 96 System Real-Time PCR machine (Roche) using Sypro-Orange dye (Invitrogen) and thermal ramping (0.25°C per min between 20 and 85°C). […] Data were processed using the Boltzmann equation to generate sigmoidal denaturation curves, and average Tm/ΔTm values were calculated as previously described using GraphPad Prism software package.

pig kidney FBPase M248D = target: T2, pig kidney FBPase M248D (Sus scrofa, UniProt P00636, M249D); assay: Differential scanning fluorimetry, M248D mutant; conditions: enzyme M248D
T2 construct: His6 (C); made in house; host or cells: Escherichia coli BL21 (DE3)
T2 sequence (P00636 1-338 M249D): T1 sequence (P00636 1-338 Y165A) with A165Y, M249D
Description: as §1

pig kidney FBPase M177A = target: T3, pig kidney FBPase M177A (Sus scrofa, UniProt P00636, M178A); assay: Differential scanning fluorimetry, M177A mutant; conditions: enzyme M177A
T3 construct: His6 (C); made in house; host or cells: Escherichia coli BL21 (DE3)
T3 sequence (P00636 1-338 M178A): T1 sequence (P00636 1-338 Y165A) with A165Y, M178A
Description: as §1

pig kidney FBPase K112A = target: T4, pig kidney FBPase K112A (Sus scrofa, UniProt P00636, K113A); assay: Differential scanning fluorimetry, K112A mutant; conditions: enzyme K112A
T4 construct: His6 (C); made in house; host or cells: Escherichia coli BL21 (DE3)
T4 sequence (P00636 1-338 K113A): T1 sequence (P00636 1-338 Y165A) with K113A, A165Y
Description: as §1

| SMILES | melting point of enzyme with AMP (100 µM) (pig kidney FBPase Y164A; AMP 100 µM) | melting point of enzyme with AMP (100 µM) (pig kidney FBPase M248D; AMP 100 µM) | melting point of enzyme with AMP (100 µM) (pig kidney FBPase M177A; AMP 100 µM) | reduction in melting temperature, presence of AMP vs absence of ligand (pig kidney FBPase K112A) | melting point of enzyme with AMP (100 µM) (pig kidney FBPase K112A; AMP 100 µM) | melting point of enzyme with Mg^2+ ([…]) (pig kidney FBPase Y164A; Mg^2+ […]) | melting point of enzyme with Mg^2+ ([…]) (pig kidney FBPase M248D; Mg^2+ […]) | melting point of enzyme with Mg^2+ ([…]) (pig kidney FBPase M177A; Mg^2+ […]) | melting point of enzyme with Mg^2+ ([…]) (pig kidney FBPase K112A; Mg^2+ […]) |
| --- | --- | --- | --- | --- | --- | --- | --- | --- | --- |
| Nc1ncnc2c1ncn2[C@@H]1O[C@H](COP(=O)(O)O)[C@@H](O)[C@H]1O [AMP] | 55.0 (± 2.25) °C | 59.0 (± 2.50) °C | 54.1 (± 1.25) °C | 5–9 ° | 42.0 (± 2.50) °C | – | – | – | – |
| [Mg+2] [Mg^2+, magnesium] | – | – | – | – | – | 55.2 (± 1.75) °C | 65.0 (± 1.75) °C | 55.8 (± 1.75) °C | 51.0 (± 2.50) °C |
